Values joined by “and” are separate entries in the source; they are usually repeats but may differ in a detail not shown here. Identical values can stand only once. Like-named read-outs stand apart in the source and are kept apart here.
Legend:
Assay type in all cases: cell-based
GPR139 [1] = target: T1, GPR139 (Homo sapiens, UniProt Q6DWJ6); experiment: Ca2+ mobilization assay, antagonist mode (EC80 800 nM Lundbeck Cmp 1a after 20 min preincubation), GPR139-CHOk1; details: individual replicates (Supplementary Figure 4)
T1 sequence (Q6DWJ6 1-353): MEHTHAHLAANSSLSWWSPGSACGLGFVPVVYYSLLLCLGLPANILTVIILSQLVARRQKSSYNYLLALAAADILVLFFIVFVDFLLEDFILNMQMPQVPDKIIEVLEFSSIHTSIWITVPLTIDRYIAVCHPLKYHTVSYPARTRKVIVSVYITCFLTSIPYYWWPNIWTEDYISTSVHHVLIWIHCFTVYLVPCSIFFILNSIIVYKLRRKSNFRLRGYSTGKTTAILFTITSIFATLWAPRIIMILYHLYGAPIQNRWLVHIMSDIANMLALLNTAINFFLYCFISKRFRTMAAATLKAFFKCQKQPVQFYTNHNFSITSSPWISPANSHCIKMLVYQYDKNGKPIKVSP
Summary of the method: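 Fluo-4-loaded GPR139-CHOk1 cells in HEPES-buffered HBSS (pH 7.4, 2.5 mM probenecid) given test compounds at 10 µM, then after 20 min challenged with 800 nM Lundbeck Cmp 1a (EC80). Calcium fluorescence read at 37 °C, 485/525 nm.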

GPR139 [2] = target: T1, GPR139; experiment: Ca2+ mobilization assay, agonist mode, stable GPR139-CHOk1 cell line; details: for Emax: normalized to Lundbeck Cmp 1a, read-out: Emax (%) Ca2+
Summary of the method: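 Agonist activity of compounds is assessed in stably transfected CHO-K1 cells using the calcium dye Fluo-4 at 37 °C in HEPES-buffered HBSS (pH 7.4). Efficacy is expressed relative to the reference agonist Lundbeck Cmp 1a, set as 100%.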

[3] = target: T2, human muscarinic acetylcholine M1 receptor (M1R) (Homo sapiens, UniProt P11229); experiment: Ca2+ mobilization counter-screen in M1R-CHOk1 cells; details: individual replicates (Supplementary Figure 5)
T2 sequence (P11229 1-460): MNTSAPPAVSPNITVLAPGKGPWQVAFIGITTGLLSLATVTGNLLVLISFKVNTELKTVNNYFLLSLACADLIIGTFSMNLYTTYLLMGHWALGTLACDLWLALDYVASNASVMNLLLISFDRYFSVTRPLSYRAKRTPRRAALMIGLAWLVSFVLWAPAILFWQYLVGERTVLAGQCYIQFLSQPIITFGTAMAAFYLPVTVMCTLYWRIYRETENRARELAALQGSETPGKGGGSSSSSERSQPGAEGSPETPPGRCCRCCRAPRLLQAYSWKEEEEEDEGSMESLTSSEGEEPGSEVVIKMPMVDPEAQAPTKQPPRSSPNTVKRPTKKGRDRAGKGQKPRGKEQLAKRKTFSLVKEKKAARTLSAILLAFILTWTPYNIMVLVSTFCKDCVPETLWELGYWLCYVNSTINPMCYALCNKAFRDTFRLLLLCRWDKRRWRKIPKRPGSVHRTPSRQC
Summary of the method: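 M1R-CHOk1 cells seeded at 30,000/well for 20–24 h were loaded with 2 µM Fluo-4 AM for 1 h at 37 °C in HEPES-buffered HBSS (pH 7.4, 2.5 mM probenecid). Compounds were added after baseline reads, with DMSO at most 0.3% final. Calcium mobilization was read at 37 °C, excitation 485/emission 525 nm.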

[4] = Agonist mode, individual replicates (Supplementary Figure 4)
[5] = Supplementary Table 2, mean ± SEM, read-out: pEC50 Ca2+ (converted)
[6] = Supplementary Table 2, mean ± SEM
[7] = log [Compound] M = -4.5, individual replicate columns
[8] = log [Compound] M = -5.0, individual replicate columns
[9] = log [Compound] M = -5.5, individual replicate columns
[10] = log [Compound] M = -6.0, individual replicate columns
[11] = log [Compound] M = -6.5, individual replicate columns
[12] = log [Compound] M = -7.0, individual replicate columns
[13] = log [Compound] M = -7.5, individual replicate columns
[14] = log [Compound] M = -8.0, individual replicate columns
[15] = log [Compound] M = -8.5, individual replicate columns
[16] = log [Compound] M = -9.0, individual replicate columns

Row | Structure (SMILES) | Ca2+ signal (% of Cmp 1a) (GPR139 [1]) | Ca2+ signal (% of Cmp 1a) (GPR139 [2]; [4]) | fold decrease in potency relative to parent compound 1 (GPR139 [2]; Ca2+ mobilization EC50) | EC50 (GPR139 [2]; [5]) [nM] | Emax (GPR139 [2]; [6]) [%] | Ca2+ signal (% of Cmp 1a) (GPR139 [2]; [7]) | Ca2+ signal (% of Cmp 1a) (GPR139 [2]; [8]) | Ca2+ signal (% of Cmp 1a) (GPR139 [2]; [9]) | Ca2+ signal (% of Cmp 1a) (GPR139 [2]; [10]) | Ca2+ signal (% of Cmp 1a) (GPR139 [2]; [11]) | Ca2+ signal (% of Cmp 1a) (GPR139 [2]; [12]) | Ca2+ signal (% of Cmp 1a) (GPR139 [2]; [13]) | Ca2+ signal (% of Cmp 1a) (GPR139 [2]; [14]) | Ca2+ signal (% of Cmp 1a) (GPR139 [2]; [15]) | Ca2+ signal (% of Cmp 1a) (GPR139 [2]; [16]) | Ca2+ signal (% of Carbachol) [3] | fold decrease in potency on substitution of the central oxadiazole ring (GPR139 [2]; Ca2+ mobilization) [fold] | EC50 (GPR139 [2]; GPR139-CHOk1, read-out: EC50, Ca2+ mobilization) [nM]
1 | Cc1ncc(-c2nc(CC(=O)NC(C)c3ccccc3)no2)s1 (centres unmarked) [Compound 1.34, CC(C1=CC=CC=C1)NC(CC2=NOC(C3=CN=C(S3)C)=N2)=O] | 33 % of Cmp 1a and 16 % of Cmp 1a and 43 % of Cmp 1a | 81 % of Cmp 1a and 51 % of Cmp 1a | 3- to 25 fold | 3980 | 90 ± 6 | 108 % of Cmp 1a and 98 % of Cmp 1a and 84 % of Cmp 1a and 88 % of Cmp 1a | 66 % of Cmp 1a and 94 % of Cmp 1a and 68 % of Cmp 1a and 51 % of Cmp 1a | 43 % of Cmp 1a and 86 % of Cmp 1a and 38 % of Cmp 1a and 21 % of Cmp 1a | 8.56 % of Cmp 1a and 40 % of Cmp 1a and 9.49 % of Cmp 1a and -0.9 % of Cmp 1a | -2.32 % of Cmp 1a and 12 % of Cmp 1a and 4.69 % of Cmp 1a and 1.79 % of Cmp 1a | 3 % of Cmp 1a (2×) and -4 % of Cmp 1a and 10 % of Cmp 1a | 8 % of Cmp 1a and -0.386 % of Cmp 1a and 18 % of Cmp 1a and 3.4 % of Cmp 1a | 15 % of Cmp 1a and -0.802 % of Cmp 1a and 16 % of Cmp 1a and 14 % of Cmp 1a | 6.66 % of Cmp 1a and 2 % of Cmp 1a and 14 % of Cmp 1a and 12 % of Cmp 1a | 1.77 % of Cmp 1a and 8 % of Cmp 1a and 11 % of Cmp 1a and 6 % of Cmp 1a | 0.0525 % of Carbachol and -0.37 % of Carbachol and -1 % of Carbachol |  | 
2 | COc1ccc(-c2nc(CC(=O)NC(C)c3ccccc3)no2)nc1 (centres unmarked) [Compound 1.35, COC1=CN=C(C2=NC(CC(NC(C3=CC=CC=C3)C)=O)=NO2)C=C1] | 28 % of Cmp 1a and 18 % of Cmp 1a and 35 % of Cmp 1a | 54 % of Cmp 1a and 78 % of Cmp 1a and 29 % of Cmp 1a |  | 5010 | 101 ± 5 | 94 % of Cmp 1a and 90 % of Cmp 1a and 98 % of Cmp 1a and 75 % of Cmp 1a | 78 % of Cmp 1a and 80 % of Cmp 1a (2×) and 38 % of Cmp 1a | 47 % of Cmp 1a and 55 % of Cmp 1a and 66 % of Cmp 1a and 27 % of Cmp 1a | 20 % of Cmp 1a and 21 % of Cmp 1a and 51 % of Cmp 1a and 17 % of Cmp 1a | -3 % of Cmp 1a and 8 % of Cmp 1a and 26 % of Cmp 1a and 20 % of Cmp 1a | 1.67 % of Cmp 1a and -1.67 % of Cmp 1a and 26 % of Cmp 1a and 31 % of Cmp 1a | 2.67 % of Cmp 1a and 5.33 % of Cmp 1a and 16 % of Cmp 1a and 34 % of Cmp 1a | -2 % of Cmp 1a and 11 % of Cmp 1a and 29 % of Cmp 1a and 25 % of Cmp 1a | -6 % of Cmp 1a and 3 % of Cmp 1a and 17 % of Cmp 1a and -0.333 % of Cmp 1a | 2 % of Cmp 1a and 4.67 % of Cmp 1a and 12 % of Cmp 1a and -2 % of Cmp 1a | 7 % of Carbachol and 14 % of Carbachol and 10 % of Carbachol |  | 
3 | CC(NC(=O)Cn1cc(-c2cccs2)nn1)c1ccccc1 (centres unmarked) [Compound 1.38, CC(NC(=O)CN1C=C(N=N1)C2=CC=CS2)C=3C=CC=CC3] | 22 % of Cmp 1a and 19 % of Cmp 1a | 54 % of Cmp 1a and 77 % of Cmp 1a and 68 % of Cmp 1a |  |  | 82 ± 7 | 92 % of Cmp 1a (2×) and 78 % of Cmp 1a and 67 % of Cmp 1a | 90 % of Cmp 1a and 69 % of Cmp 1a and 85 % of Cmp 1a and 60 % of Cmp 1a | 88 % of Cmp 1a and 51 % of Cmp 1a and 91 % of Cmp 1a and 56 % of Cmp 1a | 56 % of Cmp 1a and 17 % of Cmp 1a and 49 % of Cmp 1a and 18 % of Cmp 1a | 22 % of Cmp 1a and -6 % of Cmp 1a and 11 % of Cmp 1a and 3.64 % of Cmp 1a | 7.61 % of Cmp 1a and -2.54 % of Cmp 1a and 1.82 % of Cmp 1a and 1.21 % of Cmp 1a | 0.854 % of Cmp 1a and 4 % of Cmp 1a and -4.35 % of Cmp 1a and 9 % of Cmp 1a | -1.25 % of Cmp 1a and 0.0327 % of Cmp 1a and -3 % of Cmp 1a and 1.5 % of Cmp 1a | 1 % of Cmp 1a and 0.912 % of Cmp 1a and 6 % of Cmp 1a and 0.231 % of Cmp 1a | 5.27 % of Cmp 1a and -0.036 % of Cmp 1a and 7.38 % of Cmp 1a and 4.27 % of Cmp 1a | 0.152 % of Carbachol and 1.48 % of Carbachol and 2 % of Carbachol | 7 | 1300
4 | COc1csc(-c2nc(CC(=O)NC(C)c3ccccc3)no2)c1 (centres unmarked) [Compound 1.39, COC1=CSC(=C1)C2=NC(CC(=O)NC(C)C=3C=CC=CC3)=NO2] | -8 % of Cmp 1a and 12 % of Cmp 1a and -11 % of Cmp 1a | 80 % of Cmp 1a and 95 % of Cmp 1a and 86 % of Cmp 1a |  | 316 | 123 ± 14 | 120 % of Cmp 1a and 97 % of Cmp 1a and 133 % of Cmp 1a | 130 % of Cmp 1a and 91 % of Cmp 1a and 148 % of Cmp 1a | 122 % of Cmp 1a and 94 % of Cmp 1a and 152 % of Cmp 1a | 98 % of Cmp 1a and 72 % of Cmp 1a and 114 % of Cmp 1a | 73 % of Cmp 1a and 44 % of Cmp 1a and 79 % of Cmp 1a | 38 % of Cmp 1a and 21 % of Cmp 1a and 34 % of Cmp 1a | 20 % of Cmp 1a and 15 % of Cmp 1a and 2 % of Cmp 1a | 16 % of Cmp 1a and 17 % of Cmp 1a and -3.33 % of Cmp 1a | 7 % of Cmp 1a and 12 % of Cmp 1a and -8 % of Cmp 1a | 15 % of Cmp 1a and 20 % of Cmp 1a and 0.667 % of Cmp 1a | -14 % of Carbachol and -1 % of Carbachol and -5.33 % of Carbachol |  | 

From paper PMC12775434, “Ultra-large virtual screening unveils potent agonists of the neuromodulatory orphan receptor GPR139” (Nature Communications, 2025)
